The values below are quoted from earlier work in US6635277B2, “Composition for pulsatile delivery of diltiazem and process of manufacture” (Wockhardt Limited, priority 2000, dated 2003).

The conditions of this data set: in 0.1N HCl.

Take `CCCCCCCCCCCCOS(=O)(=O)[O-].[Na+]` [sodium lauryl sulfate]: the Fraction ionized is on record as 10%.
